# Earlier results, collected in paper PMC8198792, “Prediction of Anticancer Peptides with High Efficacy and Low Toxicity by Hybrid Model Based on 3D Structure of Peptides” (International Journal of Molecular Sciences, 2021).
# Where two headings read alike, the source gives them in different places.
# Tested on: cancer cell lines
# Design: method as in 6 sources, ref CancerPPD [45] and SATPdb ||| ref CancerPPD/SATPdb ||| ref CancerPPD, SATPdb, Swissprot (PDB) ||| ref CancerPPD/SATPdb/Swissprot(PDB) ||| ref CancerPPD / SATPdb ||| ...
# Settings: cited from earlier work
# Source text: Supplement ijms-22-05630-s001.zip/ACPs(seguence).xlsx, sheet "D1" | column: Activity || Supplement ijms-22-05630-s001.zip/ACPs(seguence).xlsx, sheet "D2" | column: Activity || Supplement ijms-22-05630-s001.zip/ACPs(seguence).xlsx, sheet "D3" | column: Activity || (+ 2 further places)
# [1] = ACPs dataset D3 (supplement sheet "D3"), 1 = ACP, 0 = non-ACP, ref CancerPPD [45] and SATPdb
# [2] = ACPs dataset D4 (sheet "D4"), label 1 = ACP, 0 = non-ACP, ref CancerPPD / SATPdb
# [3] = ACPs dataset D5, sheet "D5", label 1 = ACP, 0 = non-ACP, ref CancerPPD [45] and SATPdb
# [4] = ACPs dataset D3 (sheet "D3"), label 1 = ACP, 0 = non-ACP, ref CancerPPD/SATPdb
# [5] = ACPs dataset D1, 1 = ACP (positive), 0 = non-ACP (negative), label taken from databases, ref CancerPPD [45] and SATPdb
# [6] = ACPs dataset D4 (sheet "D4"), label 1 = ACP, experimentally validated ACPs, ref CancerPPD [45] and SATPdb
# [7] = ACPs dataset D5 (sheet "D5"), label 1 = ACP (positive set), sequences with CancerPPD/SATPdb ID, ref CancerPPD, SATPdb
# [8] = ACPs dataset sheet D2, 1 = ACP (CancerPPD/SATPdb ID), 0 = non-ACP (Swissprot/PDB ID), ref CancerPPD, SATPdb, Swissprot (PDB)
# [9] = ACPs dataset D4 (sheet "D4"), label 1 = ACP (CancerPPD ID), 0 = non-ACP (non-anticancer AMP, SATPdb ID), ref CancerPPD [45] and SATPdb
# [10] = ACPs dataset D5 (sheet "D5"), label 1 = ACP (positive set), 0 = non-ACP (negative set), ref CancerPPD [45] and SATPdb
# [11] = ACPs dataset D1, label 1 = ACP, 0 = non-ACP (non-anticancer AMPs from SATPdb), ref CancerPPD/SATPdb
# [12] = ACPs dataset D2 (supplement ACPs(seguence).xlsx, sheet D2), dataset label 1/0 (ACP / non-ACP), entries identified by Swissprot(PDB ID), ref CancerPPD/SATPdb/Swissprot(PDB)
Substance,Activity [5],Activity [6],Activity [7],Activity [8],Activity [9],also measured
HFLLTLKNLAKKIL [satpdb10120],,,,,,Activity [1]: 0; Activity [2]: 0; Activity [3]: 0
HFLLTLVNLAKkIL [satpdb14808],,,,,,Activity [4]: 0; Activity [2]: 0; Activity [3]: 0
HGSTTLRDITV [satpdb28282],1,1,1,1,,
HHPHGHHPHGHHPHGHHPHG [compound 4189],1,1,1,1,,
HRHQGPIFDTRPSPFNPNQPRPGPIY [satpdb10283],0,,,,0,
HTHQDFQPVLHLVALNTPLSGGMRGIR [satpdb17795],1,1,1,1,,
IDWKKLLDAAKQIL [compound 4438],1,1,1,1,,
IFGAILPLAL GALKNLIK [2N0O NMR - A 1-18],,,,0,,Activity [10]: 0
IFGAIWKGISSLL [satpdb10136],0,,,,0,
IKLSPETKDNLKKVLKGAIKGAIAVAKMV [satpdb12617],,,,,,Activity [4]: 0; Activity [2]: 0; Activity [3]: 0
ILGKIWKIKKLF [satpdb10262],0,,,,0,
ILPFKFPFFPFRR [satpdb11203],0,,,,0,
ILPILSLIGGLLGK [compound 4439],1,1,1,1,,
ILPLKLPLLPLRR [satpdb14372],,,,,,Activity [4]: 0; Activity [2]: 0; Activity [3]: 0
ILPWKWPWAPARR [satpdb12615],,,,,,Activity [4]: 0; Activity [2]: 0; Activity [3]: 0
ILPWKWPWWPWRR [compound 1827],1,1,1,1,,
ILRWPWWPWRRK [compound 1880],,,,,1,Activity [1]: 1; Activity [10]: 1
INEFLERSGIPRQRNQ [satpdb14958],1,1,1,1,,
INGSLDKRLLPDVET [satpdb28594],1,1,1,1,,
INGSLDKRVQDCYHG [satpdb28376],1,1,1,1,,
INLKAIAAMAKKL [satpdb11272],0,,,,0,

Substance,Activity [5],Activity [6],Activity [7],Activity [8],Activity [9],also measured
INWKKIAEVGGKILSS [satpdb11077],0,,,,0,
IPCGESCVWIPCISGMFGCSCKDKVCYS [compound 4368],1,1,1,1,,
ISDYSIAMDKIRQQDFVNWLLAQKGKKSDWKHNITQ [satpdb11921],,,,,0,Activity [11]: 0
ITIPPIIKDTLKKFFKGGIAGVMGKSQ [satpdb11170],0,,,,0,
ITIPPIVKNTLKKFIKGAVSALMS [satpdb11263],0,,,,0,
ITMQGIQGQKIRMIMF [satpdb23309],1,1,1,1,,
ITPATPFTPAIITEITAAVIA [satpdb10693],0,,,,0,
IWLTALKFLGKNLGKHLAKQQLAKL [6CL3 NMR - A 1-25],,,,0,,Activity [10]: 0
IYSFDGRDIMTDPSWPQKVIWHGSSPHGVRLVDNYCEAWRTA [satpdb23000],1,1,1,1,,
KAAKKAWKAWKKAAKAAWKKAA [compound 4477],1,1,1,1,,
KAAKKAWKWAKKAAKWAKKAA [compound 4479],1,1,1,1,,
KAFDITYVRLKF [satpdb20842],1,1,1,1,,
KAYSTPRCKYLFRAVLCWL [satpdb14444],,,,,,Activity [4]: 0; Activity [2]: 0; Activity [3]: 0
KCGHKHQCAVHN [satpdb17767],1,1,1,1,,
KDCKRESNTFPGICITKPPCRKACIREKFTDGHCSKILRRCLCTKPC [5KK4 X-ray 1.70 A/B/C/D/E/F 1-47],,,,,,Activity [12]: 0; Activity [10]: 0
KFCEKPSGTWSGVCGNSGACKDQCIRLEGAKHGSCNYKLPAHRCICYYEC [satpdb13047],,,,,,Activity [11]: 0; Activity [2]: 0
KFPKFRRGIPFLFV [satpdb10093],0,,,,0,
KGRGKRRRCKQRPSDCPRR [satpdb22253],1,1,1,1,,
KGRGKRRREKQRPCDKPRR [satpdb15140],1,1,1,1,,
KIKLFKKWPKFLHLAKKF [satpdb14419],,,,,,Activity [4]: 0; Activity [2]: 0; Activity [3]: 0
KIKSCYYLPCFVTS [satpdb14785],1,1,1,1,,

Substance,Activity [5],Activity [6],Activity [7],Activity [8],Activity [9],also measured
KILRGVAKKILRTFLRRISKDILTGKK [compound 3329],,,,,1,Activity [1]: 1; Activity [10]: 1
KILRGVAKKIMRTFLRRILTGKK [compound 3321],,,,,1,Activity [1]: 1; Activity [10]: 1
KILRGVAKKIMRTFLRRISKDILTGKK [compound 3325],,,,,1,Activity [1]: 1; Activity [10]: 1
KKLFKKilkYL [satpdb14386],,,,,,Activity [4]: 0; Activity [2]: 0; Activity [3]: 0
KKLLKWLKKLL [satpdb14598],,,,,,Activity [4]: 0; Activity [2]: 0; Activity [3]: 0
"KKVCACPKILKPVCGSDGRTYANSCIARCNGVSIKSEGSCPTGILN [1LDT X-ray 1.90,L,1-46]",,,,,,Activity [12]: 0; Activity [10]: 0
KKWGWLAWVDPAYEFIKGFGKGAIKEGNKDKWKNI [2JPK NMR - A 1-35],,,,,,Activity [12]: 0; Activity [10]: 0
KLALKLALKAlkAALKLA [satpdb10294],0,,,,0,
KLCERSSGTWSGVCGNNNACKNQCINLEGARHGSCNYVFPYHRCICYFPC [satpdb11142],0,,,,0,
KLCGETCFKFKCYTPGCSCSYPFCK [compound 4395],1,1,1,1,,
KLLKKLLKWLK [satpdb13967],,,,,,Activity [4]: 0; Activity [2]: 0; Activity [3]: 0
KMWSKILGHLIR [compound 3511],,,,,1,Activity [1]: 1; Activity [10]: 1
KNWKAILKHIIK [satpdb13480],,,,,,Activity [4]: 0; Activity [2]: 0; Activity [3]: 0
KNWKK-Aib-LKK-Aib-IK-Aib-VK [compound 3503],,,,,1,Activity [1]: 1; Activity [10]: 1
KNWKKILGKIIKVVK [compound 3509],,,,,1,Activity [1]: 1; Activity [10]: 1
KRFKKFFKKLKNSVKKRVKKFFRKPRVIGVTFPF [satpdb10654],0,,,,0,
KRGFGKKLRKRLKKFRNSIKKRLKNFNVVIPIPLPG [satpdb11105],0,,,,0,
KRRHWFPLSFQEFLEQLRRFRDQLPFP [satpdb12966],,,,,,Activity [11]: 0; Activity [2]: 0
KRRREKQRPCDKPRR [satpdb15198],1,1,1,1,,
KSSAYSLQMGATAIKQVKKLFKKWGW [compound 4448],1,1,1,1,,
